From US20160223554A1, “METHODS FOR DIAGNOSIS, PROGNOSIS AND METHODS OF TREATMENT” (priority 2011, published 2016)

Key:
[1] = tested on: AML blasts; experiment: SCNP phospho-flow signaling nodes in AML PBMC (Example 2, Study No. 1); assay type: cell-based, human; details: for Mean Value of CRs: CR patients; for Mean Value of CRs / Mean Value of NRs: Study No. 1; for Mean Value of NRs: NR patients
Description: Frozen cells are thawed in a 37° C. water bath and gently resuspended in the vial and transferred to the 15 mL conical tube. The 15 mL tube is centrifuged at 930 RPM (200×g) for 8 minutes at room temperature. The supernatant is aspirated and the pellet is gently resuspended in 1 mL media A. The cell suspension is filtered through a 70 um cell strainer into a new 15 mL tube. The cell strainer is rinsed with 1 mL media A and another 12 ml of media A into the 15 mL tube. The cells are mixed into an even suspension. A 20 μL aliquot is immediately removed into a 96-well plate containing 180 μL PBS+4% FBS+CD45 Alexa 700+PI to determine cell count and viability post spin. After the determination, the 15 mL tubes are centrifuged at 930 RPM (200×g) for 8 minutes at room temperature. The supernatant is aspirated and the cell pellet is gently resuspended in 4 mL PBS+4 μL Amine Aqua and incubated for 15 min in a 37° C. incubator. 10 mL RPMI+1% FBS is added to the cell suspension and the tube is inverted to mix the cells. The 15 mL tubes are centrifuged at 930 RPM (200×g) for 8 minutes at room temperature. The cells are resuspended in Media A at the desired cell concentration (1.25×10^6/mL). For samples with low numbers of cells (<18.5×10^6), the cells are resuspended in up to 15 mL media. For samples with high numbers of cells (>18.5×10^6), the volume is raised to 10 mL with media A and the desired volume is transferred to a new 15 mL tube, and the cell concentration is adjusted to 1.25×10^6 cells/ml. 1.6 mL of the above cell suspension (concentration at 1.25×10^6 cells/ml) is transferred into wells of a multi-well plate. From this plate, 80 ul is dispensed into each well of a subsequent plate. The plates are covered with a lid (Nunc) and placed in a 37° C. incubator for 2 hours to rest.
A concentration for each stimulant that is five folds more (5×) than the final concentration is prepared using Media A as diluent. 5× stimuli are arrayed into wells of a standard 96 well v-bottom plate that correspond to the wells on the plate with cells to be stimulated.
Adding the stimulant: The cell plate(s) are taken out of the incubator and placed in a 37° C. water bath next to the pipette apparatus. The cell plate is taken from the water bath and gently swirled to resuspend any settled cells. With pipettor, the stimulant is dispensed into the cell plate and vortexed at “7” for 5 seconds. The deep well plate is put back into the water bath.
The plate is covered with foil sealer and incubated in a 37° C. water bath for 10 minutes. The plate is spun for 6 minutes at 2000 rpm at room temperature. The cells are aspirated using a 96 well plate aspirator (VP Scientific). The plate is vortexed to resuspend cell pellets in the residual volume. The pellet is ensured to be dispersed before the Methanol step (see cell permeabilization) or clumping will occur.
Cell Permeabilization: Permeability agent, for example methanol, is added slowly and while the plate is vortexing. To do this, the cell plate is placed on titer plate shaker and made sure it is secure. The plate is set to shake using the highest setting. A pipetter is used to add 0.6 mls of 100% methanol to the plate wells. The plate(s) are put on ice until this step has been completed for all plates. Plates are covered with a foil seal using the plate roller to achieve a tight fit. At this stage the plates can be stored at −80° C.
Cells are thawed if frozen. Cells are pelleted at 2000 rpm 5 minutes. Supernatant is aspirated with vacuum aspirator. Plate is vortexed on a “plate vortex” for 5-10 seconds. Cells are washed with 1 mL FACS buffer. Repeat the spin, aspirate and vortex steps as above. 50 μL of FACS/stain buffer with the desired, previously optimized, antibody cocktail is added to two rows of cells at a time and agitate the plate. The plate is covered and incubated in a shaker for 30 minutes at room temperature (RT). During this incubation, the compensation plate is prepared.

[2] = tested on: AML blasts; experiment: SCNP signaling and apoptosis nodes in AML BMMC (Example 4, Study No. 2); assay type: cell-based, human
[3] = Total Phospho metric, Study No. 1, CRp patient included in NR group
[4] = read-out p-Stat3, metric TotalPhospho
[5] = Study No.2, patients less than 60 years old
[6] = Study No.2, patients with De Novo AML
[7] = Fold metric, Study No. 1, CRp patient included in NR group
[8] = Fold metric, all patients, Study No. 2
[9] = read-out p-Akt, metric TotalPhospho
[10] = Study No.2, patients age 60 and older
[11] = Study No.2, patients with Secondary AML
[12] = read-out p-CREB, metric TotalPhospho
[13] = read-out p-Plcγ2, metric TotalPhospho
[14] = read-out p-Stat1, metric TotalPhospho
[15] = read-out p-S6, metric TotalPhospho
[16] = read-out p-Erk, metric TotalPhospho

GM-CSF
Mean Value of CRs, p-Stat3 [1, 3]: 0.83
Mean Value of NRs, p-Stat3 [1, 3]: 1.23
Mean Value of CRs [1, 4]: 0.84
Mean Value of NRs [1, 4]: 1.24
Mean Value of CRs, p-Stat3 TotalPhospho [2, 5]: 1.51
Mean Value of NRs, p-Stat3 TotalPhospho [2, 5]: 2.35
Mean Value of CRs, p-Stat3 TotalPhospho [2, 6]: 1.51
Mean Value of NRs, p-Stat3 TotalPhospho [2, 6]: 2.22

CCCCCCCCCCCCCC(=O)O[C@@H]1[C@@H](C)[C@@]2(O)[C@@H](C=C(CO)C[C@]3(O)C(=O)C(C)=C[C@@H]23)[C@@H]2C(C)(C)[C@]12OC(C)=O [PMA, reference compound]
Mean Value of NRs, p-Erk [1, 7]: 2.03
Mean Value of CRs, p-Erk [2, 8]: 2.82
Mean Value of NRs, p-Erk [2, 8]: 1.74

SDF -1α
Mean Value of CRs [1, 9]: 0.57
Mean Value of NRs [1, 9]: 1.04

IL-l0
Mean Value of CRs, p-Stat1 [1, 3]: 0.17
Mean Value of NRs, p-Stat1 [1, 3]: 0.47

OO [H2O2, reference compound]
Mean Value of CRs ([1]; read-out p-Lck, metric Fold): 0.42
Mean Value of NRs ([1]; read-out p-Lck, metric Fold): 0.12
Mean Value of CRs ([1]; read-out p-SLP 76, metric Fold): 1.35
Mean Value of NRs ([1]; read-out p-SLP 76, metric Fold): 0.08
Mean Value of CRs, p-Akt [2, 8]: 0.68
Mean Value of NRs, p-Akt [2, 8]: 0.91
Mean Value of CRs, p-Akt Fold [2, 10]: 0.45
Mean Value of CRs, p-Akt TotalPhospho [2, 10]: 0.84
Mean Value of CRs, p-Plcγ2 TotalPhospho [2, 10]: 1.19
Mean Value of NRs, p-Akt Fold [2, 10]: 0.88
Mean Value of NRs, p-Akt TotalPhospho [2, 10]: 1.33
Mean Value of NRs, p-Plcγ2 TotalPhospho [2, 10]: 1.86

COc1cc([C@@H]2c3cc4c(cc3[C@@H](O[C@@H]3O[C@@H]5CO[C@@H](C)O[C@H]5[C@H](O)[C@H]3O)[C@H]3COC(=O)[C@H]23)OCO4)cc(OC)c1O [Etoposide, reference compound]
Mean Value of CRs, c-PARP [2, 8]: 0.79
Mean Value of NRs, c-PARP [2, 8]: 0.25
Mean Value of CRs, p-Chk2−,c-PARP+ Quad [2, 5]: 21.17
Mean Value of NRs, p-Chk2−,c-PARP+ Quad [2, 5]: 9.58
Mean Value of CRs, p-Chk2+,c-PARP− Quad [2, 11]: 20.98
Mean Value of CRs, p-Chk2−,c-PARP+ Quad [2, 11]: 32.71
Mean Value of NRs, p-Chk2+,c-PARP− Quad [2, 11]: 55.02
Mean Value of NRs, p-Chk2−,c-PARP+ Quad [2, 11]: 13.24

CN[C@@H]1C[C@H]2O[C@@](C)([C@@H]1OC)n1c3ccccc3c3c4c(c5c6ccccc6n2c5c31)C(=O)NC4 [Stautospotine]
Mean Value of CRs, c-PARP Fold [2, 5]: 3.47
Mean Value of NRs, c-PARP Fold [2, 5]: 7.06

IGF-1
Mean Value of CRs, p-CREB Alexa488 [1, 3]: 1.11
Mean Value of CRs, p-CREB PE [1, 3]: 1.42
Mean Value of CRs, p-Plcγ2 [1, 3]: 1.82
Mean Value of NRs, p-CREB Alexa488 [1, 3]: 1.62
Mean Value of NRs, p-CREB PE [1, 3]: 2.29
Mean Value of NRs, p-Plcγ2 [1, 3]: 2.76
Mean Value of CRs [1, 12]: 1.52
Mean Value of NRs [1, 12]: 2.29
Mean Value of CRs [1, 13]: 1.91
Mean Value of NRs [1, 13]: 2.76

IL-10: cytokine modulator
Mean Value of CRs, p-Stat3 [1, 3]: 0.72
Mean Value of NRs, p-Stat3 [1, 3]: 1.69
Mean Value of CRs [1, 14]: 0.20
Mean Value of NRs [1, 14]: 0.47
Mean Value of CRs [1, 4]: 0.82
Mean Value of NRs [1, 4]: 1.69
Mean Value of CRs, p-Stat3 [2, 8]: 0.08
Mean Value of CRs, p-Stat5 [2, 8]: 0.09
Mean Value of NRs, p-Stat3 [2, 8]: 0.39
Mean Value of NRs, p-Stat5 [2, 8]: 0.43
Mean Value of CRs, p-Stat3 TotalPhospho [2, 5]: 1.67
Mean Value of NRs, p-Stat3 TotalPhospho [2, 5]: 2.90
Mean Value of CRs, p-Stat3 Fold [2, 6]: 0.05
Mean Value of CRs, p-Stat3 TotalPhospho [2, 6]: 1.63
Mean Value of CRs, p-Stat5 Fold [2, 6]: 0.0
Mean Value of NRs, p-Stat3 Fold [2, 6]: 0.45
Mean Value of NRs, p-Stat3 TotalPhospho [2, 6]: 2.68
Mean Value of NRs, p-Stat5 Fold [2, 6]: 0.43

EPO
Mean Value of CRs, p-Stat1 [1, 3]: 0.17
Mean Value of CRs, p-Stat3 [1, 3]: 0.64
Mean Value of NRs, p-Stat1 [1, 3]: 0.42
Mean Value of NRs, p-Stat3 [1, 3]: 1.23
Mean Value of CRs [1, 14]: 0.20
Mean Value of NRs [1, 14]: 0.42
Mean Value of CRs [1, 4]: 0.72
Mean Value of NRs [1, 4]: 1.23

C/C=C(/C)C(=O)O[C@H]1C(C)=C2[C@H]([C@@H]1OC(=O)CCCCCCC)[C@@](C)(OC(C)=O)C[C@H](OC(=O)CCC)[C@@]1(O)[C@H]2OC(=O)[C@@]1(C)O [Thapsigargin, reference compound]
Mean Value of CRs, p-S6 [1, 7]: 0.03
Mean Value of NRs, p-S6 [1, 7]: 0.31
Mean Value of CRs, p-CREB [1, 3]: 1.79
Mean Value of CRs, p-S6 [1, 3]: 0.31
Mean Value of NRs, p-CREB [1, 3]: 2.77
Mean Value of NRs, p-S6 [1, 3]: 0.67
Mean Value of CRs [1, 12]: 1.90
Mean Value of NRs [1, 12]: 2.76
Mean Value of CRs ([1]; read-out p-S6, metric Fold): 0.04
Mean Value of NRs ([1]; read-out p-S6, metric Fold): 0.32
Mean Value of CRs [1, 15]: 0.31
Mean Value of NRs [1, 15]: 0.68
Mean Value of CRs, p-Erk [2, 8]: 1.22
Mean Value of NRs, p-Erk [2, 8]: 0.36
Mean Value of CRs, p-CREB TotalPhospho [2, 5]: 2.83
Mean Value of CRs, p-Erk Fold [2, 5]: 1.28
Mean Value of NRs, p-CREB TotalPhospho [2, 5]: 3.71
Mean Value of NRs, p-Erk Fold [2, 5]: 0.40
Mean Value of CRs, p-Erk Fold [2, 6]: 1.28
Mean Value of NRs, p-Erk Fold [2, 6]: 0.27

TNFα
Mean Value of CRs [1, 16]: 1.25
Mean Value of NRs [1, 16]: 1.65

B1: CD40L (protein, UniProt P29965 113-261, looked up)
CD40 ligand, soluble form: MQKGDQNPQIAAHVISEASSKTTSVLQWAEKGYYTMSNNLVTLENGKQLTVKRQGLYYIYAQVTFCSNREASSQAPFIASLCLKSPGRFERILLRAANTHSSAKPCGQQSIHLGGVFELQPGASVFVNVTDPSQVSHGTGFTSFGLLKL
Mean Value of CRs, p-CREB [1, 3]: 1.37
Mean Value of CRs, p-Erk [1, 3]: 1.18
Mean Value of NRs, p-CREB [1, 3]: 2.67
Mean Value of NRs, p-Erk [1, 3]: 1.62
Mean Value of CRs [1, 12]: 1.55
Mean Value of NRs [1, 12]: 2.66
Mean Value of CRs [1, 16]: 1.18
Mean Value of NRs [1, 16]: 1.64

B2: M-CSF (protein, UniProt P09603 33-554, looked up)
Macrophage colony-stimulating …: EEVSEYCSHMIGSGHLQSLQRLIDSQMETSCQITFEFVDQEQLKDPVCYLKKAFLLVQDIMEDTMRFRDNTPNAIAIVQLQELSLRLKSCFTKDYEEHDKACVRTFYETPLQLLEKVKNVFNETKNLLDKDWNIFSKNCNNSFAECSSQDVVTKPDCNCLYPKAIPSSDPASVSPHQPLAPSMAPVAGLTWEDSEGTEGSSLLPGEQPLHTVDPGSAKQRPPRSTCQSFEPPETPVVKDSTIGGSPQPRPSVGAFNPGMEDILDSAMGTNWVPEEASGEASEIPVPQGTELSPSRPGGGSMQTEPARPSNFLSASSPLPASAKGQQPADVTGTALPRVGPVRPTGQDWNHTPQKTDHPSALLRDPPEPGSPRISSLRPQGLSNPSTLSAQPQLSRSHSSGSVLPLGELEGRRSTRDRRSPAEPEGGPASEGAARPLPRFNSVPLTDTGHERQSEGSFSPQLQESVFHLLVPSVILVLLAVGGLLFYRWRRRSHQEPQRADSPLEQPEGSPLTQDDRQVELPV
Mean Value of CRs, p-Akt [1, 7]: −0.16
Mean Value of NRs, p-Akt [1, 7]: 0.05
Mean Value of CRs, p-CREB [1, 3]: 1.26
Mean Value of CRs, p-Plcγ2 [1, 3]: 1.79
Mean Value of NRs, p-CREB [1, 3]: 1.76
Mean Value of NRs, p-Plcγ2 [1, 3]: 2.8
Mean Value of CRs [1, 13]: 1.86
Mean Value of NRs [1, 13]: 2.81
